According to publication PMC10138506, “Design, Synthesis and Cytotoxic Activity of Novel Salicylaldehyde Hydrazones against Leukemia and Breast Cancer” (International Journal of Molecular Sciences, 2023):

Experiments:
BV-173 cells = assay: MTT-dye reduction cytotoxicity assay, BV-173; format: cell-based, human; conditions: Homo sapiens, BV-173; training set; some activities published before [26-32], the rest measured for this study; read-out: IC50 ± standard deviation, BV-173
Protocol: (§1) The research included four leukemic and three cancer human cell lines: HL-60 (acute myeloid leukemia), SKW-3 (KE-37 derivative) (T-cell leukemia), BV-173 and K-562 (chronic myeloid leukemia), MDA-MB-231 (ER-negative breast carcinoma), MCF-7 (ER-positive breast adenocarcinoma), and SaOS-2 (osteogenic sarcoma). The cells were provided from the German Collection of Microorganisms and Cell Cultures (DSMZ, Braunschweig, Germany). The solid tumor cell lines (MDA-MB-231, MCF-7, and SaOS-2) were incubated in 90% RPMI-1640 supplemented with 10% fetal bovine serum (FBS), non-essential amino acids, 1 mM sodium pyruvate, and […] human insulin as monolayer adherent cultures. The remaining cell lines were cultivated as a suspension culture in cell culture flasks at 37 °C in an incubator “BB 16-Function Line” Heraeus (Kendro, Hanau, Germany) with humidified atmosphere and 5% CO2 under standard conditions–RPMI-1640 liquid media supplemented with 10% FBS and 2 mM L-glutamine. The cells were kept in log phase by supplementing with fresh media after removing cell suspension aliquots two or three times each week.
(§2) At least eight wells were used for each concentration.

MDA-MB-231 cells = assay: MTT-dye reduction cytotoxicity assay, MDA-MB-231; format: cell-based, human; conditions: Homo sapiens, MDA-MB-231; training set; some activities published before [26-32], the rest measured for this study; read-out: IC50 ± standard deviation, MDA-MB-231
Protocol: as §1, §2

KE-37 cells = assay: MTT-dye reduction cytotoxicity assay, KE-37; format: cell-based, human; conditions: Homo sapiens, KE-37; training set; some activities published before [26-32], the rest measured for this study; read-out: IC50 ± standard deviation, KE-37
Protocol: as §1, §2

K-562 cells = assay: MTT-dye reduction cytotoxicity assay, K-562; format: cell-based, human; conditions: for IC50: Homo sapiens, K562, training set, some activities published before [26-32], the rest measured for this study, read-out: IC50 ± standard deviation, K-562; for Ligand Efficiency (LE) K-562: LE = pIC50/number of heavy atoms
Protocol: as §1, §2

MCF-7 cells = assay: MTT-dye reduction cytotoxicity assay, MCF-7; format: cell-based, human; conditions: Homo sapiens, MCF7; training set; some activities published before [26-32], the rest measured for this study; read-out: IC50 ± standard deviation, MCF-7
Protocol: as §1, §2

SaOS-2 cells = assay: MTT-dye reduction cytotoxicity assay, SaOS-2; format: cell-based, human; conditions: Homo sapiens, SAOS-2; training set; some activities published before [26-32], the rest measured for this study; read-out: IC50 ± standard deviation, SaOS-2
Protocol: as §1, §2

HL-60 cells = assay: MTT-dye reduction cytotoxicity assay, HL-60; format: cell-based, human; conditions: Homo sapiens, HL-60; training set; some activities published before [26-32], the rest measured for this study; read-out: IC50 ± standard deviation, HL-60
Protocol: as §1, §2

| Structure (SMILES) | melting point [°C] | IC50 (BV-173 cells) [µM] | IC50 (MDA-MB-231 cells) [µM] | IC50 (KE-37 cells) [µM] | IC50 (K-562 cells) [µM] | Ligand Efficiency (LE) K-562 (K-562 cells) | IC50 (MCF-7 cells) [µM] | IC50 (SaOS-2 cells) [µM] | IC50 (HL-60 cells) [µM] |
| --- | --- | --- | --- | --- | --- | --- | --- | --- | --- |
| COc1ccc(C=NNC(=O)c2ccncc2)c(O)c1 (hydrate or solvate) [Compound 14, 4-methoxysalicylaldehyde isonicotinoylhydrazone] | 232 to 233 |  |  |  |  |  |  |  |  |
| COc1cccc(/C=N/NC(=O)c2ccccc2)c1O [Compound 1] |  | 20.8 ± 4.2 | 25.3 ± 2.7 | 9.8 ± 3.1 | 27 ± 2.7 | 0.228 | 22.5 ± 5.4 | 25.5 ± 6.2 | 11.3 ± 2.6 |
| COc1cccc(/C=N/NC(=O)c2ccc(O)cc2)c1O [Compound 2] |  | 7.8 ± 2 | 24.2 ± 3.8 | 7.6 ± 2.1 | 14.3 ± 2.9 | 0.231 | 19.7 ± 2.2 | 19.2 ± 3.1 | 9.2 ± 2.4 |
| COc1cccc(/C=N/NC(=O)c2ccncc2)c1O [Compound 3] |  | 3.7 ± 1.1 | 16.4 ± 2 | 3.3 ± 1.2 | 8.7 ± 2 | 0.253 | 11.7 ± 2.4 | 11.9 ± 3.2 | 2.7 ± 0.9 |
| O=C(N/N=C/c1cc(Br)ccc1O)c1ccc(O)cc1 [Compound 4] |  |  | 20.1 ± 3.9 | 3 ± 0.5 | 2.83 ± 0.3 | 0.277 | 8.88 ± 2.7 | 50 ± 5.7 | 3.14 ± 1.1 |
| O=C(N/N=C/c1cc(Br)ccc1O)c1ccncc1 [Compound 5] |  | 0.63 ± 0.2 | 38.4 ± 2 | 2.53 ± 1 | 0.14 ± 0.09 | 0.360 | 0.26 ± 0.03 | 146 ± 8.9 | 4.13 ± 1.2 |
| O=C(N/N=C/c1cc([N+](=O)[O-])ccc1O)c1ccccc1 [Compound 6] |  | 2.39 ± 0.3 | 2.8 ± 2.7 | 6.38 ± 0.2 | 7.94 ± 2.3 | 0.243 | 0.25 ± 0.03 | 41.9 ± 5.1 | 5.64 ± 1.1 |
| O=C(N/N=C/c1cc([N+](=O)[O-])ccc1O)c1ccc(O)cc1 [Compound 7] |  | 7.62 ± 1 | > 200 | 19.9 ± 2.2 | > 200 |  | 4.95 ± 0.06 | 199 ± 12 | 14.5 ± 2.1 |
